# Test results as given in patent US20110212181A1, “COMPOSITIONS AND METHODS FOR TREATING CHRONIC RESPIRATORY INFLAMMATION” (The University of Hong Kong, priority 2010, published 2011).
# T1: NE (Homo sapiens, UniProt P08246)
# T1 sequence (P08246 30-267): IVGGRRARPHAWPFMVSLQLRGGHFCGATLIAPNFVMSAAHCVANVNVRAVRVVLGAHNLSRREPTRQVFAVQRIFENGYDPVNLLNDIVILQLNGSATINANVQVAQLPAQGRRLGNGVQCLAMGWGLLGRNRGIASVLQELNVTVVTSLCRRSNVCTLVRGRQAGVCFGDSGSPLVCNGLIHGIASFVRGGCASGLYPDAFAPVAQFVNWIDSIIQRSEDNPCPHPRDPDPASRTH
# T2: rhSyn-1 (Homo sapiens, UniProt P18827)
# T2 construct: made in house
# T2 sequence (P18827 23-310): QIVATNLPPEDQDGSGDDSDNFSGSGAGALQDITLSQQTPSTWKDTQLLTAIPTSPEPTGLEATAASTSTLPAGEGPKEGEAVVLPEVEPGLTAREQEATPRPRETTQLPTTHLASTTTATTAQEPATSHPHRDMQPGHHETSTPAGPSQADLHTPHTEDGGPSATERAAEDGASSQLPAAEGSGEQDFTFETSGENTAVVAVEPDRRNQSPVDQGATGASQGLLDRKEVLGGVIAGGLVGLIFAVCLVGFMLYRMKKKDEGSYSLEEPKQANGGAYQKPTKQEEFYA
# Legend:
# NE [1] = molecular target: T1, NE; assay: Surface plasmon resonance competition assay, NE binding to HS-SA sensor chip; conditions: for competition for NE binding to immobilized HS (in words): solution-surface competition, SPR; for competitive effectiveness (inhibition of NE binding to immobilized HS): NE at 1,000 nM, competing glycosaminoglycans at 1,000 ng/ml
# Method: (§1) Interactions of HS and NE were analyzed with a BIAcore 2,000 optical biosensor (BIAcore, Uppsala, Sweden). HS chains recovered from rhSyn-1 after LiOH treatment were biotinylated at the reducing ends (68 nmol biotin/mg HS, as determined by Quant*Tag Biotin kit; Vector Laboratories, Peterborough, UK). By a 2-minute injection of biotinylated HS, […] in 10 mM Hepes (pH 7.4), 0.15 M NaCl, and 0.005% P20 surfactant (HBS-P; BIAcore), at a flow rate of […] onto the streptavidin (SA) sensor chip (BIAcore), increase in 250 resonance units indicated successful immobilization of HS onto the sensor chip. Increasing concentrations of NE in HBS-P buffer were perfused (at […] for 2 min) in turn over the HS-SA sensor chip, each followed by perfusion of buffer to facilitate dissociation. Responses were monitored at 25° C. The sensor chip was regenerated with perfusion of 2 M NaCl/HBS-P. Resonance data obtained from sensorgrams were evaluated with BIAevaluation 3.0 software (BIAcore) to yield rate constants for association (ka), dissociation (kd) and the equilibrium dissociation constant (Kd). For competition assays, NE (2,000 nM) premixed at 1:1 (vol/vol) with defined concentrations (250-2,000 ng/ml) of the competing glycosaminglycan-chondroitin 4-sulfate (C4S), heparin, and chemically modified heparins (N-desulfated re-N-acetylated, completely desulfated re-N-acetylated, or 2-O and 6-O desulfated and N-sulfated; Seikagaku) in HBS-P buffer for 30 minutes at 4° C. was injected onto the HS-SA sensor chip at […]. Dissociation and regeneration procedures were as described above. […] All experiments were preformed in duplicate. Resonance data obtained from sensorgrams were plotted as percent inhibition relative to that obtained without competing glycosaminoglycan. The concentration of competing glycosaminoglycan that interfered with NE binding to the HS-SA sensor by 50% was determined using the statistical program, PRISM (GraphPad, Inc., San Diego, Calif.).
# NE [2] = molecular target: T1, NE; assay: Surface plasmon resonance analysis of NE-HS binding
# Method: as §1
# rhSyn-1 = molecular target: T2, rhSyn-1; assay: Western ligand blot of rhSyn-1; type: binding
# Method: Sputum sol was treated (30 min, 24° C.) with the mucolytic reducing agent, DTT (5 mM; Sigma) to deactivate NE, dialyzed against PBS (16 h, 4° C.) to remove DTT, and then incubated (16 h, 37° C.) with HS^ase I and II (0.01 unit each; Seikagaku, Tokyo, Japan) or chondroitinase ABC (0.01 unit; Seikagaku). Control treatments were performed in the relevant incubation buffer (product sheet; Seikagaku), but without the indicated enzymes. The digestion products were subjected to Western blot and Western ligand blot analyses. Recombinant Syn-1 was similarly treated, deglycanated, and analyzed, but without prior treatment with DTT.
# Sputum sol samples were treated with DTT, as described above, and then subjected to SDS-PAGE in a 10% gel under nonreducing conditions. The gel electrophoretogram was electroblotted onto polyvinylidene fluoride membrane and nonspecific binding was blocked with 5% nonfat dry milk (1 h, 24° C.) before the blot was probed for the epitope of interest. […] Secondary antibodies were conjugated with horseradish peroxidase. The membranes were washed with PBS-Tween® 20 between incubations. Visualization was enhanced with an enhanced chemiluminescence kit (Amersham Biosciences, Piscataway, N.J.). […]
# NE [3] = molecular target: T1, NE; assay: Inhibition of NE activity in the presence of rhSyn-1 or sputum sol; type: biochemical; conditions: incubations with rhSyn-1 and with sputum samples, with and without prior HS^ase I and II treatment
# Method: Unopposed NE activity in sputum sol was assessed for equivalent molar concentration by active-site titration. The NE activity of sputum sol was estimated using MeO-Suc-Ala-Ala-Pro-Val-p-nitroanilide as substrate at 2 mM in 0.2 M Tris-HCl, 0.5 M NaCl (pH 8.0); the hydrolytic release of p-nitroaniline was followed at 410 nm, 37° C. (molar extinction coefficient at 410 nm=8,800). An equivalent activity of purified human NE (Sigma, St. Louis, Mo.) was titrated with increasing concentrations of the irreversible inhibitor, MeO-Suc-Ala-Ala-Pro-Val-CMK (Calbiochem, La Jolla, Calif.), and the residual activities were measured.
# The inhibitor effects were compared with those of parallel procedure performed on DTT-pretreated sputum sol samples of the 12 patient recruits.
# [4] = NE over immobilized HS, 1:1 Langmuir model
molecule,measurement,setting,value
chondroitin 4-sulfate [C4S],competition for NE binding to immobilized HS (in words),NE [1],failed to outcompete
same,competition for NE binding to immobilized HS (in words),NE [1]; listed as CS,not
Completely desulfated and re-N-acetylated heparin,competition for NE binding to immobilized HS (in words),NE [1],failed to outcompete
heparin,competitive effectiveness (inhibition of NE binding to immobilized HS),NE [1],95%
same,competition for NE binding to immobilized HS (in words),NE [1],Effective competition
2-0 and 6-0 desulfated and N-sulfated heparin,competitive effectiveness (inhibition of NE binding to immobilized HS),NE [1],approximately 60%
heparan sulfate [HS],Kd,"NE [2]; NE (50-1,500 nM) perfused over immobilized HS from rhSyn-1, 1:1 Langmuir model, 25° C., read-out: equilibrium dissociation constant (Kd)",14.2 nM
same,"ka, rate constant for association",NE [2]; [4],3.31 ± 0.14 × 10^4 M^−1s^−1
same,"kd, rate constant for dissociation",NE [2]; [4],4.69 ± 0.21 × 10^−4 s^−1
N-desulfated and re-N-acetylated heparin,competitive effectiveness (inhibition of NE binding to immobilized HS),NE [1],approximately 75%
alpha-1-antitrypsin [α1-AT],binding to glycanated rhSyn-1,rhSyn-1,not
same,binding to deglycanated rhSyn-1 core protein,rhSyn-1; after heparitinase and chondroitinase treatments,binding
"eglin C (peptide, UniProt P01051 1-70, looked up) Eglin C: TEFGSELKSFPEVVGKTVDQAREYFTLHYPQYDVYFLPEGSPVTLDLRYNRVRVFYNPGTNVVNHVPHVG",inhibition of NE activity (in words),NE [3],complete inhibition
